Reference: patent US20110165173A1, “THERAPEUTIC AGENT AND DETECTION REAGENT FOR ARTERIOSCLEROTIC DISEASE WHICH TARGETS FOR SALUSIN” (PROTEINEXPRESS CO., LTD., priority 2007, published 2011)

How the values were obtained:
[1] = test system: ACAT-1 protein expression; assay: ACAT-1 protein expression in cultured human monocyte-derived macrophages after differentiation (Western blotting); format: cell-based; conditions: cultured 3 more days
Description: For ACAT-1 protein detection, an anti-human ACAT-1 polyclonal antibody (DM10 donated from Dr. Chang, Dartmouth Medical School) [Chang CCY et al., J Biol Chem. 1995; 270: 29532-29540] prepared by immunizing a rabbit was used as a primary antibody (final concentration: 0.5 μg/mL) for a reaction on a transfer membrane at room temperature for 1 hour. The transfer membrane was washed with PBS-0.1% Tween 20, followed by a reaction with a secondary antibody (anti-rabbit IgG antibody: anti-rabbit IgG donkey antibody conjugated with horseradish peroxidase (HRP) (GE Healthcare Bio-Science)) at room temperature for 1 hour. For a secondary antibody, a stock solution (0.5 μL) was diluted 10,000-fold with PBS-0.1% Tween 20 (5 mL), and the resultant was used. Washing was carried out with PBS-0.1% Tween 20, followed by ACAT-1 protein detection with the use of Lumi-Light Plus (PerkinElmer Life Sciences).
In each of the experiments in Examples 1 to 6, salusin-α and salusin-β were added in the phase of differentiation of cultured human monocytes into macrophages and cells obtained on Day 7 of culture were used to examine the effects of salusin-α and salusin-13. In this Example, it was examined whether salusin-α and salusin-β would have similar effects on ACAT-1 protein expression in macrophages obtained after differentiation. […]

[2] = test system: macrophages of apoE-deficient mice; assay: Foaming (oxidized LDL-induced cholesterol ester accumulation) of macrophages collected from treated apoE-deficient mice; format: in vivo; conditions: 0.6 nmol/kg/h, four weeks
Description: (§1) 13-week-old male apoE-deficient mice (72 mice) were divided into the following 6 groups: (i) physiological salt saline (control); (ii) salusin-α (0.6 nmol/kg/h); (iii) salusin-β (0.6 nmol/kg/h); (iv) salusin-α (0.6 nmol/kg/h)+anti-salusin-α serum (1.4 μg/kg/h); (v) salusin-β (0.6 nmol/kg/h)+anti-salusin-β serum (1.4 μg/kg/h); and (vi) anti-salusin-β serum (1.4 μg/kg/h). The mice were subjected to continuous subcutaneous administration with the use of an osmotic mini-pump for 4 to 8 weeks. The osmotic mini-pump and the solution contained therein were changed every week.
On Day 4 after intraperitoneal administration of thioglycollate, transudatory macrophages were collected and cultured with an RPMI1640 solution containing 10% bovine fetal serum. Oxidized LDL (10 μg/mL) and [^3H] oleic acid (0.1 mM) were added to the culture solution. After 13 hours, the radioactivity of intracellularly accumulated cholesterol [^3H] oleic acid was assayed for evaluation of foaming of macrophages.

CD36 = CD36 expression by macrophages of treated apoE-deficient mice (Western blotting); format: in vivo; conditions: four weeks
Description: as §1
(§2) Macrophages were collected as in the experiment in (1), and the protein expression of the gene involved in foaming of macrophages (i.e., scavenger receptors CD36 and SR-A capable of recognizing oxidized LDL, intracellular cholesterol esterification enzyme ACAT1, and ABCA1, ABCG1, and SR-BI, which are involved in cholesterol efflux) was analyzed by Western blotting. For the internal standard of the macrophage function, β-actin expression was also examined. For quantification of the band concentration, Analyzer (ATTO Corporation, Tokyo) was used.

SR-A = SR-A expression by macrophages of treated apoE-deficient mice (Western blotting); format: in vivo; conditions: four weeks
Description: as §1, §2

[3] = target: T1, mouse mas-like G protein-coupled receptor Al (mMrgA 1) (Mus musculus, UniProt Q91WW5); conditions: HEK293T cells expressing mMrgA1; Wang Z et al., Eur J Pharmacol. 2006; cited from earlier work
T1 construct: host or cells: HEK293T cells (heterologous expression, reported by Wang et al., Eur J Pharmacol 2006)
T1 sequence (Q91WW5 1-304): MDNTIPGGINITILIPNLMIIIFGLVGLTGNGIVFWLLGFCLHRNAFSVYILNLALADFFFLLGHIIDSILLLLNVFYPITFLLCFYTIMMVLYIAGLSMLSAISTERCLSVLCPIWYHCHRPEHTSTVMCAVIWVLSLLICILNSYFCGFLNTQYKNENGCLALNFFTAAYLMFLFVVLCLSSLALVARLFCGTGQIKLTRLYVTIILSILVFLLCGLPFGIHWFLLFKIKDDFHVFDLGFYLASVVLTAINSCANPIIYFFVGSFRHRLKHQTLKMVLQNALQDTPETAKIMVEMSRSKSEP

[4] = 0.6 nmol/kg/h, range given jointly for CD36, SR-A, ACAT1, P<0.05

salusin-α: peptide (SEQ ID NO: 1) comprising 28 amino acid residues, generated by processing from preprosalusin (SGALPPAPAAPRPALRAQRAGPAGPGAK; listed as Homo sapiens)
ACAT-1 protein expression level, percent of that of the control ([1]; 1.0 nM added on Day 7 after differentiation): 60%
foaming of macrophages due to oxidized LDL (intracellular cholesterol ester accumulation), fraction of control ([2]; P<0.05): approximately ¼
CD36 protein expression (CD36; salusin-α 0.6 nmol/kg/h): did not influence
SR-A protein expression (SR-A; salusin-α 0.6 nmol/kg/h): did not influence
ligand for mMrgA1 [3]: does not serve as a ligand

salusin-β: peptide (SEQ ID NO: 3) comprising 20 amino acid residues, generated by processing from preprosalusin (AIFIFIRWLLKLGHHGRAPP; listed as Homo sapiens) [reference compound]
ACAT-1 protein expression level relative to control ([1]; 0.6 nM added on Day 7 after differentiation): 2.2 times
foaming of macrophages due to oxidized LDL relative to control ([2]; P<0.01): approximately 2 times
CD36 protein expression relative to control level (CD36; [4]): 1.5 to 2.8 times
SR-A protein expression relative to control level (SR-A; [4]): 1.5 to 2.8 times
ligand for mMrgA1 [3]: regarded as a ligand
